Measurements from a compilation of properties of binary mixtures (doi:10.1016/j.molliq.2017.08.019).

Test: xn = mol fraction of the nth substance listed
Conditions: 100 kPa

CCCC[n+]1ccn(C)c1.O=S(=O)([O-])C(F)(F)F + CCCC[n+]1ccn(C)c1.F[P-](F)(F)(F)(F)F
viscosity [mPa·s]
Conditions	293.15 K	298.15 K	303.15 K	308.15 K	313.15 K	318.15 K	323.15 K	328.15 K
x2 = 0	90.8	76	–	51.7	42.11	35.18	30.02	26.6
x2 = 0.0005	90.9	76	–	51.8	–	35.2	–	26.61
x2 = 0.0006	90.9	76.1	63.6	51.8	–	–	–	26.61
x2 = 0.0007	90.9	–	63.6	51.8	42.14	35.2	30.03	26.61
x2 = 0.0009	90.9	76.1	63.7	51.8	–	35.21	30.04	26.61
x2 = 0.0018	91	–	63.7	51.8	42.17	–	30.05	26.62
x2 = 0.0061	–	76.5	64	52	42.34	35.36	30.15	26.71
x2 = 0.01	91.9	76.9	64.3	52.2	42.5	35.49	30.24	26.79
x2 = 0.0501	96.7	80.5	67.1	54.4	44.11	36.73	31.17	27.59
x2 = 0.0806	100.4	–	–	56.1	45.35	37.69	32.03	28.27
x2 = 0.1	102.9	85.3	–	57.1	46.2	38.32	32.53	28.7
x2 = 0.15	–	90.4	74.7	–	48.4	–	33.86	–
x2 = 0.1999	–	95.8	78.8	–	–	–	35.27	–
x2 = 0.3	132.1	107.5	87.8	69.7	55.5	–	–	33.41
x2 = 0.3999	149.7	120.7	97.7	77	60.9	49.6	41.49	36.06
x2 = 0.5002	169.7	135.6	108.9	85.2	–	54.1	45	38.95
x2 = 0.6	192.3	152.2	121.3	94.1	73.3	58.9	48.8	42.02
x2 = 0.7	–	170.9	135.1	104	80.4	64.2	52.9	45.35
x2 = 0.7995	247	191.8	150.3	114.8	–	70	57.4	48.9
x2 = 0.8997	280	215	167.5	126.9	96.7	–	–	52.8
